From US20240262826A1, “WILD TYPE KIT INHIBITORS” (Blueprint Medicines Corporation, priority 2022, published 2024)

target: wild type c-kit (Homo sapiens (Human), UniProt P10721); assay: PathScan phospho c-kit (Tyr719) sandwich ELISA in SCF-stimulated M-07e cells (pKIT assay); assay type: cell-based; conditions: ELISA assay (values not marked *)
Text: The ability of compounds of the disclosure (described herein as test compounds) to inhibit autophosphorylation of wild type c-kit was measures using either a PathScan phospho c-kit (Tyr719) sandwich ELISA (CST #7298) or a Phospho c-Kit (Tyr721) Assay Whole Cell Lysate Kit (MSD: 515DPD/catalog number K15119D-2).
For the PathScan phospho c-kit (Tyr719) sandwich ELISA: M-07e cells were resuspended at 2×10^6 cells/mL in phenol red free, serum-free, GM-CSF-free Iscove's Modified Dulbecco's Medium (IMDM) media with 1% Penicillin-Streptomycin. The cells were then dispensed into the wells of a U-bottom, 96-well plate at 50 uL per well using a multichannel pipet. The plate was allowed to incubate at 37° C. in a humidified tissue culture incubator for 4 hours.
After 4 hours of incubation, each well was dosed with 6.25 uL of test compound at a final DMSO concentration of 0.25% for 60 min at 37° C. to generate an 8-point dose concentration series of test compounds in duplicate. Cells were then incubated for 1 hour at 37° C. in a humidified tissue culture incubator. Next, human SCF at 500 ng/mL was added to the appropriate wells at 6.25 uL/well and the plate was shaken at 450 rpm at room temperature for 10 minutes. AlphaLISA 5× Lysis Buffer supplemented with 1× protease and phosphatase inhibitor was then added at 16 uL/well. The plate was sealed with an adherent cover and shaken at 4° C. at 600 rpm for 30 minutes. After this period of lysis, the plate was stored at −80° C.
When the 96-well plate containing M07e lysates was ready to be processed, the plate was brought to room temperature and 40 μl from each well was transferred to the wells of a PathScan Phospho-c-Kit (Tyr719) Sandwich ELISA plate (CST, Catalog #7298). The ELISA plate was sealed with an adherent cover and incubated for 2 hours at 37° C. Next, the wells were washed 4 times with the provided 1× Wash Buffer, and 100 uL/well of reconstituted Detection Antibody was added to each well, the plate sealed with an adherent cover, and incubated at 37° C. for 1 hour. The wash procedure was repeated and 100 uL/well of reconstituted HRP-Linked secondary antibody was added. The plate was sealed with an adherent cover and incubated at 37° C. for 1 hour. The wash procedure was repeated and 100 uL/well of TMB Substrate was added. The plate was incubated for 10 minutes at room temperature or until the positive reaction elicited a blue color in the appropriate wells. 100 uL/well of STOP solution was added and shaken gently for a few seconds a microplate reader or conventional spectrophotometer e.g., a Perkin Elmer Envision multimode plate reader, part #2105-0010.
An IC50 was calculated using a 4-parameter logistic nonlinear regression.

Sequence of wild type c-kit (P10721 26-976): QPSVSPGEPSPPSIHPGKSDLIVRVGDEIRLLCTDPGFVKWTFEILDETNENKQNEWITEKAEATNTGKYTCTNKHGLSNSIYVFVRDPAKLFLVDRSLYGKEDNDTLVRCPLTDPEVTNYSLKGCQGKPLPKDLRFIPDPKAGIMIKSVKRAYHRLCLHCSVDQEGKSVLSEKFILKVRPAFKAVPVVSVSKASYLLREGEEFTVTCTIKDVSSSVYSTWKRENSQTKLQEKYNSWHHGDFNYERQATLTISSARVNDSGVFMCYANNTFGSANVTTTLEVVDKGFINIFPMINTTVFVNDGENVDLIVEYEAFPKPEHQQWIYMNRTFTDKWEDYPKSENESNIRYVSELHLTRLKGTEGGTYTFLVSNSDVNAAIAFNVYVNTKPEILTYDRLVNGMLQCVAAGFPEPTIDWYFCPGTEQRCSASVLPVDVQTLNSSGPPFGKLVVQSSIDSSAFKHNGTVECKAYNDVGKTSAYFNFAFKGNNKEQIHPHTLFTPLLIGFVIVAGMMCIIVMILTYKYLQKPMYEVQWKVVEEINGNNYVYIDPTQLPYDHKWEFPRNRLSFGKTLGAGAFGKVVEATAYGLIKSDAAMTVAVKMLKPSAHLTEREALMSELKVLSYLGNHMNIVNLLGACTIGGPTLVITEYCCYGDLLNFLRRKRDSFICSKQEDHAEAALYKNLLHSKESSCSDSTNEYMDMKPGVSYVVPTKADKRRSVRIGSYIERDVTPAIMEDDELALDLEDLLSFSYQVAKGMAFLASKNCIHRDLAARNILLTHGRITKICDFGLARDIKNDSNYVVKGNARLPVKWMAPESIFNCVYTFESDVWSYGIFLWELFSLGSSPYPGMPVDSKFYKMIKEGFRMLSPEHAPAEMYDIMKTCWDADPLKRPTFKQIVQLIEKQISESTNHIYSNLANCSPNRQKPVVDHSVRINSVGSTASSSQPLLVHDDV

IC50 | Compound
46.6 nM | COC(=O)N1CC(n2nnc(-c3ccc(C)c(NC(=O)c4cnn5ccc(N6CCN(CC(F)F)CC6)cc45)c3)n2)C1 [Example 73, methyl 3-(5-(3-(5-(4-(2,2-difluoroethyl)piperazin-1-yl)pyrazolo[1,5-a]pyridine-3-carboxamido)-4-methylphenyl)-2H-tetrazol-2-yl)azetidine-1-carboxylate]
63.9 nM | COC(=O)N1CC(n2nnc(-c3ccc(C)c(NC(=O)c4cnn5ccc(N6CCN(C7COC7)CC6)cc45)c3)n2)C1 [Example 74, methyl 3-(5-(4-methyl-3-(5-(4-(oxetan-3-yl)piperazin-1-yl)pyrazolo[1,5-a]pyridine-3-carboxamido)phenyl)-2H-tetrazol-2-yl)azetidine-1-carboxylate]
9.6 nM | COC(=O)N1CC(n2nnc(-c3ccc(C)c(NC(=O)c4cnn5ccc(N6CCN7CCC[C@@H]7C6)cc45)c3)n2)C1 [Example 75, methyl (R)-3-(5-(3-(5-(hexahydropyrrolo[1,2-a]pyrazin-2(1H)-yl)pyrazolo[1,5-a]pyridine-3-carboxamido)-4-methylphenyl)-2H-tetrazol-2-yl)azetidine-1-carboxylate]
55.6 nM | CCOC(=O)N1CC(n2nnc(-c3ccc(C)c(NC(=O)c4cnn5ccc(N6CCN(C)CC6)cc45)c3)n2)C1 [Example 76, ethyl 3-(5-(4-methyl-3-(5-(4-methylpiperazin-1-yl)pyrazolo[1,5-a]pyridine-3-carboxamido)phenyl)-2H-tetrazol-2-yl)azetidine-1-carboxylate]
60.7 nM | CCOC(=O)N1CC(n2nnc(-c3ccc(C)c(NC(=O)c4cnn5ccc(N6CCOCC6)cc45)c3)n2)C1 [Example 77, ethyl 3-(5-(4-methyl-3-(5-morpholinopyrazolo[1,5-a]pyridine-3-carboxamido)phenyl)-2H-tetrazol-2-yl)azetidine-1-carboxylate]
23.4 nM | [2H]C([2H])([2H])N1CCN(c2ccn3ncc(C(=O)Nc4cc(-n5ncc(C6CN(C(=O)OC)C6)n5)ccc4C)c3c2)CC1 [Example 82, methyl 3-(2-(4-methyl-3-(5-(4-(methyl-d3)piperazin-1-yl)pyrazolo[1,5-a]pyridine-3-carboxamido)phenyl)-2H-1,2,3-triazol-4-yl)azetidine-1-carboxylate]
50.4 nM | COC(=O)N1CC(c2cnn(-c3ccc(C)c(NC(=O)c4cnn5ccc(N6CCN(C7COC7)CC6)cc45)c3)n2)C1 [Example 83, methyl 3-(2-(4-methyl-3-(5-(4-(oxetan-3-yl)piperazin-1-yl)pyrazolo[1,5-a]pyridine-3-carboxamido)phenyl)-2H-1,2,3-triazol-4-yl)azetidine-1-carboxylate]
34.5 nM | COCCNc1ccn2ncc(C(=O)Nc3cc(-c4nnn(C)n4)ccc3C)c2c1 [Example 87, 5-((2-methoxyethyl)amino)-N-(2-methyl-5-(2-methyl-2H-tetrazol-5-yl)phenyl)pyrazolo[1,5-a]pyridine-3-carboxamide]
3.2 nM | COCCNc1ccn2ncc(C(=O)Nc3cc(-c4nnn(C5CC5)n4)ccc3C)c2c1 [Example 88, N-(5-(2-cyclopropyl-2H-tetrazol-5-yl)-2-methylphenyl)-5-((2-methoxyethyl)amino)pyrazolo[1,5-a]pyridine-3-carboxamide]
50.9 nM | COC(=O)N1CC(n2nnc(-c3ccc(C)c(NC(=O)c4cnn5ccc(N6CCO[C@@H](CO)C6)cc45)c3)n2)C1 [Example 91, methyl (R)-3-(5-(3-(5-(2-(hydroxymethyl)morpholino)pyrazolo[1,5-a]pyridine-3-carboxamido)-4-methylphenyl)-2H-tetrazol-2-yl)azetidine-1-carboxylate]
33.8 nM | [2H]C([2H])([2H])OCCNc1ccn2ncc(C(=O)Nc3cc(-c4nnn(C5CN(C(=O)OC)C5)n4)ccc3C)c2c1 [Example 100, methyl 3-(5-(3-(5-((2-(methoxy-d3)ethyl)amino)pyrazolo[1,5-a]pyridine-3-carboxamido)-4-methylphenyl)-2H-tetrazol-2-yl)azetidine-1-carboxylate]
